Key:
Assay type in all cases: functional, cell-based
[1] = tested on: CCRF-CEM; test: Cytotoxicity against human CEM cells
[2] = tested on: L1210; test: Cytotoxicity against mouse L1210 cells
[3] = Cytotoxicity against human Molt 4/C8 cells; conditions: Molt4/C8

| Structure (SMILES) | IC50 [1] [µM] | IC50 [2] [µM] | IC50 [3] [µM] |
| --- | --- | --- | --- |
| COc1ccc(/C=N/NC(N)=S)cc1 | 158 | 232 | 196 |
| NC(=S)/N=N/c1c(O)[nH]c2ccccc12 | 249 | 382 | 405 |
| NC(=S)N/N=C/c1ccccc1F | 166 | 242 | 140 |
| Oc1ccccc1/C=N/c1ccc(F)c(Cl)c1 | 100 | 68 | 112 |
| NC(=S)N/N=C/c1ccc(Cl)cc1 | 194 | 284 | 302 |
| NC(=S)N/N=C/c1ccccc1Cl | 98 | 84 | 200 |

Source: ChEMBL document CHEMBL1139806, “Synthesis, anticancer, and cytotoxic activities of some mononuclear Ru(II) compounds” (Bioorg Med Chem, 2007)
